Source: ChEMBL document CHEMBL1201862, “PubChem BioAssay data set” (2004)
The source made the active and inactive calls.

Tests used:
[1] = biological target: 1-phosphatidylinositol 4,5-bisphosphate phosphodiesterase gamma-1 (Homo sapiens, UniProt P19174); experiment: Counterscreen for inhibitors of phospholipase C isozymes (PLC-B3): Fluorescence-based biochemical high throughput dose response assay to identify inhibitors of phospholipase C isozymes (PLC-gamma1).
[2] = biological target: 1-phosphatidylinositol 4,5-bisphosphate phosphodiesterase beta-3 (Homo sapiens, UniProt Q01970); experiment: Fluorescence-based biochemical high throughput dose response assay to identify inhibitors of phospholipase C isozymes (PLC-B3).
[3] = cells
[4] = test system: HEK293; experiment: inhibition of NOD1-driven NF-kB reporter – cell-based, luminescence, uHTS, primary screen (AID 1578); type: functional; conditions: Homo sapiens
[5] = test system: HEK293; experiment: cells; type: functional, cell-based; conditions: Homo sapiens
[6] = test system: HEK293; experiment: cells; type: functional, cell-based; conditions: Homo sapiens; remark: listed apart in the source
[7] = test system: HEK293; experiment: NOD2 signaling inhibitors in MDP-stimulated cells, cell-based, uHTS, luminescence (AID 2001); type: functional; conditions: Homo sapiens
[8] = biological target: Tumor necrosis factor (Homo sapiens, UniProt P01375); experiment: analog potency on TNFa NF-kB signaling – cell-based, revised, SAR follow-up (AID 2337); type: functional
[9] = biological target: T1, Nucleotide-binding oligomerization domain-containing protein 1 (Homo sapiens, UniProt Q9Y239); experiment: blockers of NOD1 pathway activity – revised, SAR follow-up (AID 2333); type: functional
T1 sequence (Q9Y239 whole entry): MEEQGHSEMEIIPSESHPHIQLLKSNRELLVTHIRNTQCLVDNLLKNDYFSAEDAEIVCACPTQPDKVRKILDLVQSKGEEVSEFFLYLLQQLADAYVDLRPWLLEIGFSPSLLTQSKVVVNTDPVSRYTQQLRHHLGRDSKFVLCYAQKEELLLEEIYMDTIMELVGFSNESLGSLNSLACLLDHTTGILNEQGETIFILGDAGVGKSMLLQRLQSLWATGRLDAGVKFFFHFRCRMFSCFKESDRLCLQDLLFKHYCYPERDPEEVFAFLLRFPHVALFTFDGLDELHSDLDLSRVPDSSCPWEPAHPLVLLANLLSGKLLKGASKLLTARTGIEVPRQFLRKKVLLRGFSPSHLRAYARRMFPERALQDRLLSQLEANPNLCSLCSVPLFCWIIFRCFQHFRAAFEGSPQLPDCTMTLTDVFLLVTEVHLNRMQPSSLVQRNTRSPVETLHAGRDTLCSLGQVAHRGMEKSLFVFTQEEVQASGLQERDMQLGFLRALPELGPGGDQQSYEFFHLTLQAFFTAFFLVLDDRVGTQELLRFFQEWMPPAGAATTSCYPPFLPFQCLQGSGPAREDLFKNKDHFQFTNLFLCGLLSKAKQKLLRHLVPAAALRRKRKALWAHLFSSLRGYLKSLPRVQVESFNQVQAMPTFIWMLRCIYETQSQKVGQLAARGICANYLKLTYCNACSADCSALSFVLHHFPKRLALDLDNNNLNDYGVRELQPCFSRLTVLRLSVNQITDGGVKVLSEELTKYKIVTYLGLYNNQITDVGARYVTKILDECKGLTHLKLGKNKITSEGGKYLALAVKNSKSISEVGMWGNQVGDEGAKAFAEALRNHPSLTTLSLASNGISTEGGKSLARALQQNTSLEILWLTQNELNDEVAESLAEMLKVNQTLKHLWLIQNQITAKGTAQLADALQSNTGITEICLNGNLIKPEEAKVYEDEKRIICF

[10] = reduction of Shn3 3'UTR-driven luciferase in osteoblasts – cell-based, Clone20 osteoblasts, firefly luciferase, cherry-picked, dose response (AID 624132); type: functional;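 note: firefly luciferase luminescence from reporter carrying the Shn3 3'UTR in osteoblasts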
[11] = loss of viability in HepG2 cells – cell-based, CellTiter-Glo, cherry-picked, cytotoxicity control for Shn3 inhibitor project, dose response (AID 624134); type: functional
[12] = non-specific 3'UTR reporter inhibition in Clone20-Shn3RL – cell-based, Renilla luciferase, cherry-picked, counter-screen for Shn3 inhibitor project, dose response (AID 624133); type: functional
[13] = Shn3 3'UTR reporter signal decrease – cell-based, Clone20 osteoblasts, firefly luciferase, cherry-pick, set 2, Schnurri-3 inhibitor project, dose response (AID 720490); type: functional;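 note: actives lower the luminescence signal as inhibitors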
[14] = test system: HEK293; experiment: cells; conditions: Homo sapiens
[15] = Luminescence Cell-Based Dose Retest to Confirm Inhibitors of Cancer Stem Cells. [Related pubchem assays (depositor defined):AID2717, AID2721]; type: functional; conditions: Homo sapiens
[16] = potency of ADAM10 substrate cleavage blockers – biochemical, QFRET, dose response (AID 743254);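 note: ADAM10 enzyme with the DM2 quenched FRET peptide as substrate; EDANS fluorescence gain as the protease cuts the substrate; inhibitor potency against ADAM10 proteolytic activity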
[17] = biological target: Disintegrin and metalloproteinase domain-containing protein 17 (Homo sapiens, UniProt P78536); experiment: inhibition of ADAM17 substrate cleavage – biochemical, quenched FRET substrate, counter-screen for ADAM10 exosite inhibitor project, dose response (AID 743253)
Chain of Disintegrin and metalloproteinase domain-containing protein 17 (P78536 whole entry, the tested form may be a part): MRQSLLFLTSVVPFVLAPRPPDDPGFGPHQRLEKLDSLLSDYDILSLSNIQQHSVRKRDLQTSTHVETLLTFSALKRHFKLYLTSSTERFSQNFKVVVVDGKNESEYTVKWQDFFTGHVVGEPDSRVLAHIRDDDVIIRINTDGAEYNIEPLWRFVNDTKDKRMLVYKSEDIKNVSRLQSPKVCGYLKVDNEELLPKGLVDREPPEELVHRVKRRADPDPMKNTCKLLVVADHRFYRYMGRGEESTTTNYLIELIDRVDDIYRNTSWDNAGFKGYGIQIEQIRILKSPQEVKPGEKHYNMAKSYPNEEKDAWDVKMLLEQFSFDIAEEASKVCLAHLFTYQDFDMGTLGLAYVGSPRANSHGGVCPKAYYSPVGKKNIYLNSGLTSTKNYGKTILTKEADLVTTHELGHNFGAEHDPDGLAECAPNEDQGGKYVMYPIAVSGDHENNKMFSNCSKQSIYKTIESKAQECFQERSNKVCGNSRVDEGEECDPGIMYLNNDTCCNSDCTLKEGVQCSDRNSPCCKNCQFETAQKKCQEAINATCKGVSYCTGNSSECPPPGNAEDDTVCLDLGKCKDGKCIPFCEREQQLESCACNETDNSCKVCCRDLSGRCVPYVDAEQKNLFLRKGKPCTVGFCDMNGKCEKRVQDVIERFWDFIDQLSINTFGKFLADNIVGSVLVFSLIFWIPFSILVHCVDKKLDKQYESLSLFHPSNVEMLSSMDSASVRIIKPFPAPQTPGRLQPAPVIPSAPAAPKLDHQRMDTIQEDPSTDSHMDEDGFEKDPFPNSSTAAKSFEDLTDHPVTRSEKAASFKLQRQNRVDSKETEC

[18] = biological target: Keap1/Nrf2 (Homo sapiens, UniProt Q14145); experiment: disruptors of Keap1 binding to Nrf2 peptide – biochemical, fluorescence polarization, cherry-picked samples, dose response (AID 588683)
Chain of Keap1/Nrf2 (Q16236 whole entry): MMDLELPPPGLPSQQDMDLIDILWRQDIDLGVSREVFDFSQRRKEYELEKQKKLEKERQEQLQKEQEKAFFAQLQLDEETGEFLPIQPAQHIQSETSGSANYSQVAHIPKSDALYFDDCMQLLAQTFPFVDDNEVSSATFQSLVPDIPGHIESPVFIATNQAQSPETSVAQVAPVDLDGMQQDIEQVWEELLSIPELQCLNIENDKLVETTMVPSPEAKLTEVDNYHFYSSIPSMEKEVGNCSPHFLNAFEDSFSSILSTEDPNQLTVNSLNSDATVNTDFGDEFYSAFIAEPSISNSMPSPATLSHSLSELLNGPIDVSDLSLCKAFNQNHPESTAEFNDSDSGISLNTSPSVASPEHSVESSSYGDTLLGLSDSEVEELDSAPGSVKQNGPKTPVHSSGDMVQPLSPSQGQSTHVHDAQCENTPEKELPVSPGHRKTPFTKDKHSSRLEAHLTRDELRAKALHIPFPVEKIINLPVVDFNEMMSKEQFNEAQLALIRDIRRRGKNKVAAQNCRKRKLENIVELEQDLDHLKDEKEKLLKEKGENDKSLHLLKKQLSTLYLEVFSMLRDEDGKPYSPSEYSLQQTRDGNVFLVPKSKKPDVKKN
Chain of Keap1/Nrf2 (Q14145 whole entry): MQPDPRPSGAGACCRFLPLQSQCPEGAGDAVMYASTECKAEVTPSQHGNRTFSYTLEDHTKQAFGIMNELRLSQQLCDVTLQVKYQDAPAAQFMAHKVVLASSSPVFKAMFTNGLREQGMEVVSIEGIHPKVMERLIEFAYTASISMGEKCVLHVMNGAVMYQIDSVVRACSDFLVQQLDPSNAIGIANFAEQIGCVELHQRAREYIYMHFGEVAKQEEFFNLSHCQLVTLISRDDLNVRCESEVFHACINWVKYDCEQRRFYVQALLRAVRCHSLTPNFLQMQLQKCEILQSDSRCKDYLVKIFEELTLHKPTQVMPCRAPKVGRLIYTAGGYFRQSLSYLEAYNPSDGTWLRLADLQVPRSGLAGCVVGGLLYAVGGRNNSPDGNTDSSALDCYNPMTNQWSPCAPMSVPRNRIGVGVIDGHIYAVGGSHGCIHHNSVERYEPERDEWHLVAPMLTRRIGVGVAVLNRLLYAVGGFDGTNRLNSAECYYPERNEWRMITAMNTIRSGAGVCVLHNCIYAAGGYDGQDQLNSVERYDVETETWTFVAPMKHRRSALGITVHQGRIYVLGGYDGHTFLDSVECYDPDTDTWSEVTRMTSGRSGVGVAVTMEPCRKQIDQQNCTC

[19] = disruptors of Keap1/Nrf2 protein interaction – biochemical, fluorescence polarization, dry powder, set 3, dose response (AID 651806)
[20] = biological target: T2, Fatty acid synthase (Homo sapiens, UniProt P49327); experiment: inhibition of human FAS-TE enzyme activity – biochemical, endpoint fluorescence intensity, uHTS hits, dose response (AID 624327); type: functional;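 note: fluorescence from hydrolysis of an O-methyl fluorescein acyl ester substrate by the enzyme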
T2 sequence (P49327 whole entry): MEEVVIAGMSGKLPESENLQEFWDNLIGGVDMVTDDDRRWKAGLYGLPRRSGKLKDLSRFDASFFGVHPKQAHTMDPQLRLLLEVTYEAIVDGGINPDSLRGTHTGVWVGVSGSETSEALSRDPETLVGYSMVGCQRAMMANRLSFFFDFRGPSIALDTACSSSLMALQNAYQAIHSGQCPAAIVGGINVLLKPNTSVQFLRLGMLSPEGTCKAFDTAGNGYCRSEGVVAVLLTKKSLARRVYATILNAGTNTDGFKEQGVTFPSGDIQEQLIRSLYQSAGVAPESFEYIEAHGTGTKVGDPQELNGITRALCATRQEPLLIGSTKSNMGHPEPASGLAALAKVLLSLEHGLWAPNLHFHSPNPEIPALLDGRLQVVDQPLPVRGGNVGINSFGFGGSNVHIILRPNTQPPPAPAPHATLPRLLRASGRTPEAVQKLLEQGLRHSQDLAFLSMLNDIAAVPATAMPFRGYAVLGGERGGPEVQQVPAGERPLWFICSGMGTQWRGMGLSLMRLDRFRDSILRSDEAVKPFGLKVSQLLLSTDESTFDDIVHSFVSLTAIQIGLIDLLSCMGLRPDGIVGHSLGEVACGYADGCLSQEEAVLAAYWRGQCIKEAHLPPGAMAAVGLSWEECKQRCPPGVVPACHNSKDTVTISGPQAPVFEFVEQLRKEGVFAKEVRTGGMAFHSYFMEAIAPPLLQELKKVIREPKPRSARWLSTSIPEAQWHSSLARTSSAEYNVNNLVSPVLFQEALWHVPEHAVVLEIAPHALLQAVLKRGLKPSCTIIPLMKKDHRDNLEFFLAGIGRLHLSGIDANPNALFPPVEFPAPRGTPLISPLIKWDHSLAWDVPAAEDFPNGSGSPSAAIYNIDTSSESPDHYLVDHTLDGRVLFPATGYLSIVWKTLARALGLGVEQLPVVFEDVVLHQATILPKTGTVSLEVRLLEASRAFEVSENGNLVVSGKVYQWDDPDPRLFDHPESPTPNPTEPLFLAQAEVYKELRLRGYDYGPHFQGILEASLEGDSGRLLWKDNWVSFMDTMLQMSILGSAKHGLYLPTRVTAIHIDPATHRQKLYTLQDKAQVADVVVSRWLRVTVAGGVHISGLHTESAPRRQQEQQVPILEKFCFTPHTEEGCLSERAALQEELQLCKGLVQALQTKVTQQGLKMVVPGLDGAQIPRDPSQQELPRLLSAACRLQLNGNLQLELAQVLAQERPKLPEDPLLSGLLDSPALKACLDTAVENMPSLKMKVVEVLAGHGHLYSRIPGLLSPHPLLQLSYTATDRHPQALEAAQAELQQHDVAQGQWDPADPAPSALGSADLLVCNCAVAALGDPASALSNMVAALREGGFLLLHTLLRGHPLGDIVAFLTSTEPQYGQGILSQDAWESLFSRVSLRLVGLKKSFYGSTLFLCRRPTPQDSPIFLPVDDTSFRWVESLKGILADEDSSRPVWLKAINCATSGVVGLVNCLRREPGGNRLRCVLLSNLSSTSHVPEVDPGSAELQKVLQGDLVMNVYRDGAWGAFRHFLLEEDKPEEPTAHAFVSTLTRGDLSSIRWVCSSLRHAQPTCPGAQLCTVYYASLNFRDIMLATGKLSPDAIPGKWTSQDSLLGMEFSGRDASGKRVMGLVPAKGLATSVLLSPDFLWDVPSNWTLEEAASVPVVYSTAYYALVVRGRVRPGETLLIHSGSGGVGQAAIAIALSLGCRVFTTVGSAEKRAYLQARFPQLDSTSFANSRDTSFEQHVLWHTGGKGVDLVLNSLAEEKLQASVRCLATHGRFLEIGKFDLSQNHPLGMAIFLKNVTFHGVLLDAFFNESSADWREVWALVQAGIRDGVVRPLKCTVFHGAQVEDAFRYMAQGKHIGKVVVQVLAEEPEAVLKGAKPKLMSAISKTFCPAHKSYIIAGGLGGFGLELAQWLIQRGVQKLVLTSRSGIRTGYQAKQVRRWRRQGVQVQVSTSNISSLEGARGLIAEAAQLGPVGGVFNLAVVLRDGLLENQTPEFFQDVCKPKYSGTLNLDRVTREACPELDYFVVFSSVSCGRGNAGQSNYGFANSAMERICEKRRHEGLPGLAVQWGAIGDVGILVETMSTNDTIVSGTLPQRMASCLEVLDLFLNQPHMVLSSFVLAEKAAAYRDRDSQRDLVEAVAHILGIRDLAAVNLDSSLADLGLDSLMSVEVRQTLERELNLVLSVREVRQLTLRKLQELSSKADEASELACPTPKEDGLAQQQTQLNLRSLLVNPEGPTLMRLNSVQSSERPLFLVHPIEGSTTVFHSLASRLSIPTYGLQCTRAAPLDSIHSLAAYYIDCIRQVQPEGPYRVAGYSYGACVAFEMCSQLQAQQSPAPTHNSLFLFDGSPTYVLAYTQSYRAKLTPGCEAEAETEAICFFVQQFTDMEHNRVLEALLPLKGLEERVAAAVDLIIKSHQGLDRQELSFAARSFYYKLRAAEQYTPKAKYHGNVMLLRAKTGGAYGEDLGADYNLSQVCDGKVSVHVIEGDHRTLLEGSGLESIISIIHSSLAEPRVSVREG

[21] = biological target: T2, Fatty acid synthase; experiment: inhibition of human FAS-TE enzyme activity – biochemical, kinetic fluorescence intensity, dose response (AID 624326); type: functional;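 note: rate of fluorescence rise from hydrolysis of a fluorogenic O-methyl fluorescein ester substrate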
[22] = biological target: T2, Fatty acid synthase; experiment: inhibition of human FAS-TE enzyme activity – biochemical, endpoint fluorescence intensity, powder samples, SAR follow-up (AID 652164); type: functional
[23] = biological target: fMet-Leu-Phe receptor (Homo sapiens, UniProt P21462); experiment: formyl peptide receptor binders – dose response (AID 519); type: functional
Chain of fMet-Leu-Phe receptor (P21462 whole entry): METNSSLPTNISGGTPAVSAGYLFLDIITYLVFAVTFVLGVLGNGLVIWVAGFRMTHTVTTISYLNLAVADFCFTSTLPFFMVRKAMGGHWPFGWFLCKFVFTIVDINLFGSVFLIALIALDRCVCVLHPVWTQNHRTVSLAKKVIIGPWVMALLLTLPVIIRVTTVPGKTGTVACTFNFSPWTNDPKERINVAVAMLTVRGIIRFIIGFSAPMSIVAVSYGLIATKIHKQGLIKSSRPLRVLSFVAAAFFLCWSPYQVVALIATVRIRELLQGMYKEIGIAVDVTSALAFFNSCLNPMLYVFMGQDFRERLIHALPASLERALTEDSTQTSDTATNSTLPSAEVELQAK

[24] = inhibitors acting on PAX2 in cells – cell-based, plate reader, dry powder samples, selectivity assay for PAX8 inhibitor project, dose response (AID 743048); type: functional;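 note: HEK293 cells carrying a WT1 promoter luciferase reporter driven by expressed Pax2; potency is for inhibition of Pax2 driven reporter signal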
[25] = COV362 cell viability loss – plate reader, dry powder, SA12, cytotoxicity control for PAX8 inhibitor project, dose response (AID 743144); type: functional, cell-based
[26] = toxicity toward immortalized ovarian surface epithelium – cell-based, plate reader, dry powder samples, cytotoxicity control for PAX8 inhibitor project, dose response (AID 743045); type: functional
[27] = A2780 cell killing – plate reader, dry powder samples, cytotoxicity control, dose response (AID 743046); type: functional, cell-based
[28] = OVCAR-3 cell viability loss – plate reader, dry powder samples, PAX8 inhibitor project, dose response (AID 743044); type: functional, cell-based
[29] = IGROV1 cell killing – plate reader, dry powder samples, PAX8 inhibitor project, dose response (AID 743043); type: functional, cell-based; conditions: IGROV-1
[30] = OVCAR4 cell viability loss – plate reader, dry powder, SA11, cytotoxicity control for PAX8 inhibitor project, dose response (AID 743150); type: functional, cell-based; conditions: OVCAR-4
[31] = COV434 cell viability loss – plate reader, dry powder, SA7, cytotoxicity control for PAX8 inhibitor project, dose response (AID 743145); type: functional, cell-based
[32] = OV-90 cell viability loss – plate reader, dry powder, SA8, PAX8 inhibitor project, dose response (AID 743149); type: functional, cell-based
[33] = PAX8-dependent cell viability loss – plate reader, dry powder, dose response (AID 743049); type: functional, cell-based
[34] = biological target: T3, Oxysterols receptor LXR-beta (Homo sapiens, UniProt P55055); type: functional, cell-based;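 note: Cell-based luminescence dose-response assay of agonist activity at LXR, run as a confirmatory counterscreen to a daf-12 agonist screen; HEK293 cells with Gal4-LXR fusion and GAL4-driven luciferase reporter; agonist potency from rising luciferase signal of a Gal4-LXR reporter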
T3 sequence (P55055 whole entry): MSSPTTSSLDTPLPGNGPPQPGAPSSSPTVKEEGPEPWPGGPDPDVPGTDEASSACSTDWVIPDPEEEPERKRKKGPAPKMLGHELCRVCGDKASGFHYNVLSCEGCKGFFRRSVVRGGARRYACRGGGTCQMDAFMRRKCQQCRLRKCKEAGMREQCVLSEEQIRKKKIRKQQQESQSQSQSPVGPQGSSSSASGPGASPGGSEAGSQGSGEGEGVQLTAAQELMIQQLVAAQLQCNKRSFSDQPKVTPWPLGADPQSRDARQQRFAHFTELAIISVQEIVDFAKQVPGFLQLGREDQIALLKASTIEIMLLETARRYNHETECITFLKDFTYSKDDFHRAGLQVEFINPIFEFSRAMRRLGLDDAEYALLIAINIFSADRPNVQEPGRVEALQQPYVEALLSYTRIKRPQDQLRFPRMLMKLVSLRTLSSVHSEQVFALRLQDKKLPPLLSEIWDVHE

[35] = cells; remark: listed apart in the source

## CCCCN=C(S)NNC(=O)c1csc(CC)c1
[1]
  IC50: > 122 µM (inactive)
[2]
  IC50: > 122 µM (inactive)

## COc1ccc(C2C3=C(CCCC3=O)N(CC(=O)O)C3=C2C(=O)CCC3)cc1
[3]
  AC50: 5.91 µM (active)

## CC1Cc2cc(S(=O)(=O)N3CCN(c4ccc(Cl)cc4)CC3)ccc2N1C(=O)C1CC1 (stereo not given)
[4]
  EC50: > 20 µM (inactive)
[5]
  IC50: 2.22 µM (active)
[6]
  IC50: > 20 µM (inactive)
[7]
  IC50: 4.43 µM (active)
[8]
  IC50: 9.52 µM (active)
[9]
  IC50: 5.6 µM (active)
[10]
  AC50: 4.26 µM (active)
[11]
  AC50: 64.6 µM (active)
[12]
  AC50: 25.4 µM (active)
[13]
  AC50: 5 µM (active)
[14]
  IC50: > 20 µM (inactive)

## Cc1ccc(S(=O)(=O)Nc2ccc(-c3csc(-c4ccccc4)n3)cc2)cc1
[15]
  AC50: 3.5 µM (active)
[16]
  IC50: > 69.5 µM (inactive)
[17]
  IC50: > 69.5 µM (inactive)

## Cc1ccc(S(=O)(=O)Nc2cc(C(C(=O)OC(C)C)C(=O)C(F)(F)F)c(O)c3ccccc23)c(C)c1 (stereo not given)
[18]
  AC50: 2.67 µM (active)
[19]
  AC50: 74.9 µM (active)

## CC(C)C(=O)Nc1nc(-c2ccc(S(=O)(=O)N3CCOCC3)cc2)cs1
[20]
  IC50: 0.614 µM (active)
[21]
  IC50: 0.53 µM (active)
[22]
  IC50: 0.874 µM (active)

## CCOc1cc(C2C(C(=O)c3ccco3)=C(O)C(=O)N2CCc2ccccc2)ccc1O (stereo not given)
[23]
  Ki: > 66.7 µM (inactive)

## COc1ccc(OC)c2sc(N(CCCN(C)C)C(=O)CCS(=O)(=O)c3ccccc3)nc12
[24]
  AC50: 56.3 µM (active)
[25]
  AC50: 12 µM (active)
[26]
  AC50: 14.5 µM (active)
[27]
  AC50: 40 µM (active)
[28]
  AC50: 7.2 µM (active)
[29]
  AC50: 25.5 µM (active)
[30]
  AC50: 22.8 µM (active)
[31]
  AC50: 5.66 µM (active)
[32]
  AC50: 17.3 µM (active)
[33]
  AC50: 13.2 µM (active)

## N#Cc1ccsc1NC(=O)CSc1nncs1
[34]
  EC50: > 67.5 µM (inactive)
[35]
  EC50: > 67.5 µM (inactive)
